Like-named read-outs stand apart in the source and are kept apart here.
How the values were obtained:
guinea pig ileum = assay: In vitro anticholinergic activity in the isolated guinea pig ileum (field stimulation); format: cell-based, male Hartley guinea pigs; conditions: for inhibition at 4 µg/mL: Cavia porcellus, read-out: Anticholinergic Inhibition of Guinea Pig Ileum
Description: The following examples describe the in vitro evaluation of anticholinergic activity in the isolated guinea pig ileum. Fasted, male Hartley guinea pigs (300-400 g) were killed by a blow to the head. […] One end of the ileal strip was impaled onto a platinum wire electrode; and the other end was tied to a stationary glass rod. Basal tension was set at 0.1-0.3 g and peak developed tension in response to field stimulation (100-150 V, 10 msec pulse duration, 0.2 Hz) was measured with a tension transducer.

[1] = system: Harris dog (ventricular arrhythmias); assay: Antiarrhythmic activity by coronary ligation in the Harris dog model; format: in vivo, adult mongrel dogs; conditions: for minimal effective dose: Canis lupus familiaris, 5 min, read-out: Antiarrhythmic ED in Harris Dog (effective dose required to sustain normal sinus rhythm)
From the text: The following examples describe the pharmacological evaluation of the compounds made in accordance with the present invention. In particular, these examples describe the evaluation of antiarrhythmic activity by coronary ligation in the well known Harris dog model. Ventricular arrhythmias were induced in adult mongrel dogs (10-15 kg) of either sex by two-state ligation of the left anterior descending coronary artery. […] The test compound in saline was infused intravenously at a cumulative rate of 0.3 mg/kg/min (base) until normal sinus rhythm or toxicity occurred. Normal sinus rhythm was defined as 90-100% normal complexes over a 5 min period.

patients = conditions: cited from earlier work
cardiac cells = conditions: cited from earlier work; for effects on impulse formation, conduction velocity and refractory period: cardiac cells
[2] = system: vagal stimulation of the heart and peripheral parasympathetic stimulation; conditions: cited from earlier work
[3] = at 4 mg/L, field stimulation 100-150 V, 10 msec, 0.2 Hz
[4] = IV infusion in saline, cumulative rate 0.3 mg/kg/min (base), day after two-stage ligation of left anterior descending coronary artery, normal sinus rhythm = 90-100% normal complexes over 5 min
[5] = patients, management of arrhythmias

Structure (SMILES): COc1nnc(Nc2cc(CN3CCCC3)c(O)c(CN3CCCC3)c2)c2ccccc12 [VII, 1-N-[3',5'-bis(pyrrolidinylmethyl)-4'-hydroxyanilino]-4-methoxyphthalazine]
- inhibition at 4 µg/mL (guinea pig ileum; [3]): 84%
- Antiarrhythmic ED in Harris Dog (effective dose required to sustain normal sinus rhythm) [1, 4]: low activity

Structure (SMILES): Oc1c(CN2CCCC2)cc(Nc2ccnc3cc(C(F)(F)F)ccc23)cc1CN1CCCC1 [XIII, 4-[3',5'-bis(N-pyrrolidinylmethyl)-4'-hydroxyanilino]-7-trifluoromethylquinoline]
- inhibition at 4 µg/mL (guinea pig ileum; [3]): 36%
- minimal effective dose [1, 4]: 3 mg/kg

Structure (SMILES): Oc1ccc(Nc2nncc3ccccc23)cc1 [Example III, 1-(4'-hydroxyanilino)phthalazine]
- inhibition at 4 µg/mL (guinea pig ileum; [3]): 23%
- Antiarrhythmic ED in Harris Dog (effective dose required to sustain normal sinus rhythm) [1, 4]: inactive

Structure (SMILES): Oc1c(CN2CCCC2)cc(Nc2ccncc2)cc1CN1CCCC1 [XX]
- inhibition at 4 µg/mL (guinea pig ileum; [3]): 5%
- minimal effective dose [1, 4]: 8 mg/kg

Structure (SMILES): Oc1ccc(Nc2ccc3ccccc3n2)cc1CN1CCCC1 [XVIII, 2-[3'-(N-pyrrolidinylmethyl)-4'-hydroxyanilino]-quinoline]
- inhibition at 4 µg/mL (guinea pig ileum; [3]): 72%
- minimal effective dose [1, 4]: 11 mg/kg

Structure (SMILES): Oc1c(CN2CCCC2)cc(Nc2ncnc3ccccc23)cc1CN1CCCC1 [Changrolin, 4-[3',5'-bis[N-pyrolidinylmethyl]-4'-hydroxyanilino]-quinazoline]
- inhibition at 4 µg/mL (guinea pig ileum; [3]): 43%
- minimal effective dose [1, 4]: 10.3 mg/kg
- adverse side-effects (patients; [5]): skin discoloration in some patients
- antiarrhythmic effectiveness of known agent (cardiac cells; background statement): effective antiarrhythmic agent
- anticholinergic action [2]: substantial anticholinergic activity

Structure (SMILES): Oc1c(CN2CCCC2)cc(Nc2ncccn2)cc1CN1CCCC1 [Example XI, 2-N-[3',5'-bis(pyrrolidinylmethyl)-4'-hydroxyanilino]-pyrimidine]
- inhibition at 4 µg/mL (guinea pig ileum; [3]): 6%
- Antiarrhythmic ED in Harris Dog (effective dose required to sustain normal sinus rhythm) [1, 4]: low activity

Structure (SMILES): Clc1nnc(Nc2cc(CN3CCCC3)cc(CN3CCCC3)c2)c2ccccc12 [XXI]
- inhibition at 4 µg/mL (guinea pig ileum; [3]): 93%
- minimal effective dose [1, 4]: 3 mg/kg

Structure (SMILES): Cc1cc(Nc2cc(CN3CCCC3)c(O)c(CN3CCCC3)c2)c2ccccc2n1 [Example XIV, 2-methyl-4-[3',5'-bis(N-pyrrolidinylmethyl)]-4'-hydroxyanilinoquinoline]
- minimal effective dose [1, 4]: 9.5 mg/kg

Structure (SMILES): CN(C)Cc1cc(Nc2nncc3ccccc23)cc(CN(C)C)c1O [IX]
- inhibition at 4 µg/mL (guinea pig ileum; [3]): 14%
- minimal effective dose [1, 4]: 14 mg/kg

Structure (SMILES): Oc1c(CN2CCCC2)cc(Nc2ccc(Cl)nn2)cc1CN1CCCC1 [Example X, 3-N-[3',5'-bis(N-pyrrolidinylmethyl)-4'-hydroxyanilino]-6-chloropyridazine]
- inhibition at 4 µg/mL (guinea pig ileum; [3]): 40%
- minimal effective dose [1, 4]: 10.5 mg/kg

Structure (SMILES): Oc1c(CN2CCCC2)cc(Nc2ccc3ccccc3n2)cc1CN1CCCC1 [Example XVII, 2-[3',5'-bis(N-pyrrolidinylmethyl)-4'-hydroxyanilino]-quinoline]
- inhibition at 4 µg/mL (guinea pig ileum; [3]): 50%
- minimal effective dose [1, 4]: 6 mg/kg

Structure (SMILES): Oc1ccc(Nc2nnc(Cl)c3ccccc23)cc1CN1CCCC1 [VI, 1-N-[3'-N-pyrrolidinylmethyl-4'-hydroxyanilino]-4-chlorophthalazine]
- inhibition at 4 µg/mL (guinea pig ileum; [3]): 65%
- minimal effective dose [1, 4]: 17 mg/kg

Structure (SMILES): Oc1c(CN2CCCC2)cc(CNc2nnc(Cl)c3ccccc23)cc1CN1CCCC1 [XIX, 1-N-[3',5'-bis(N-pyrrolidinylmethyl)-4'-hydroxybenzylamino]-4-chlorophthalazine]
- inhibition at 4 µg/mL (guinea pig ileum; [3]): 78%
- minimal effective dose [1, 4]: 4.5 mg/kg

Structure (SMILES): Oc1c(CN2CCCC2)cc(Nc2ccnc3ccccc23)cc1CN1CCCC1 [Example XVI, 4-[3',5'-bis(N-pyrrolidinylmethyl)-4'-hydroxyanilino]-quinoline]
- inhibition at 4 µg/mL (guinea pig ileum; [3]): 19%
- Antiarrhythmic ED in Harris Dog (effective dose required to sustain normal sinus rhythm) [1, 4]: low activity

Structure (SMILES): C=C[C@H]1C[N@@]2CC[C@H]1C[C@@H]2[C@@H](O)c1ccnc2ccc(OC)cc12 (stereo in doubt) [Quinidine, 6-methoxy-α-(5'-vinyl-2-quinuclidinyl)-4-quindinemethanol]
- inhibition at 4 µg/mL (guinea pig ileum; [3]): 62%
- minimal effective dose [1, 4]: 10.1 mg/kg
- adverse side-effects (patients; human, in vivo): cardiotoxicity, diarrhea, nausea, vomiting, fever, hypertension and depression of myocardial contractility
- effects on impulse formation, conduction velocity and refractory period (cardiac cells): depress impulse formation, slow conduction velocity, and increase the duration of the refractory period of cardiac cells
- anticholinergic action [2]: indirect anticholinergic actions

Structure (SMILES): CC(C)N(CCC(C(N)=O)(c1ccccc1)c1ccccn1)C(C)C (stereo not drawn) [Disopyramide, α[2-(diisopropylamino)-ethyl]α-phenol-2-pyridineacetamide]
- inhibition at 4 µg/mL (guinea pig ileum): 81%
- minimal effective dose ([1]; iv): 6.8 mg/kg
- adverse side-effects (patients; [5]): dryness of the mouth, blurred vision, constipation, and urinary retention, and depression of myocardial contractility
- effects on impulse formation, conduction velocity and refractory period (cardiac cells): depress impulse formation, slow conduction velocity, and increase the duration of the refractory period of cardiac cells
- anticholinergic action [2]: indirect anticholinergic actions

Structure (SMILES): Oc1c(CN2CCCC2)cc(Nc2ccnc3cc(Cl)ccc23)cc1CN1CCCC1 [Example XV, 4-[3',5'-bis(N-pyrrolidinylmethyl)-4'-hydroxyanilino]-7-chloroquinoline]
- inhibition at 4 µg/mL (guinea pig ileum; [3]): 27%
- Antiarrhythmic ED in Harris Dog (effective dose required to sustain normal sinus rhythm) [1, 4]: low activity

Structure (SMILES): Oc1c(CN2CCCC2)cc(Nc2nccc3ccccc23)cc1CN1CCCC1 [VIII, 1-N-[3',5'-bis(pyrrolidinylmethyl)-4'-hydroxyanilino]-isoquinoline]
- Anticholinergic Inhibition of Guinea Pig Ileum (guinea pig ileum; [3]): active
- minimal effective dose [1, 4]: 1.1 mg/kg

Structure (SMILES): Nc1cc(CN2CCCC2)c(O)c(CN2CCCC2)c1 [Example I, 3,5-bis(N-pyrrolidinylmethyl)-4-hydroxyaniline]
- inhibition at 4 µg/mL (guinea pig ileum; [3]): 3%
- Antiarrhythmic ED in Harris Dog (effective dose required to sustain normal sinus rhythm) [1, 4]: inactive

Structure (SMILES): Oc1ccc(Nc2ncnc3ccccc23)cc1 [Example II, 4-(4'-hydroxyanilino)-quinazoline]
- inhibition at 4 µg/mL (guinea pig ileum; [3]): 13%
- Antiarrhythmic ED in Harris Dog (effective dose required to sustain normal sinus rhythm) [1, 4]: inactive

Structure (SMILES): COc1cc2c(Nc3cc(CN4CCCC4)c(O)c(CN4CCCC4)c3)ncnc2c(OC)c1OC [XII, 4-[3',5'-bis(pyrrolidinylmethyl)-4'-hydroxyanilino]-6,7,8-trimethoxyquinazoline]
- inhibition at 4 µg/mL (guinea pig ileum; [3]): 14%

Structure (SMILES): Oc1c(CN2CCCC2)cc(Nc2nncc3ccccc23)cc1CN1CCCC1 [Example IV, 1[3',5'-bis[N-pyrrolidinylmethyl]-4'-hydroxyanilino]-phthalazine]
- inhibition at 4 µg/mL (guinea pig ileum; [3]): 83%
- minimal effective dose [1, 4]: 1.5 mg/kg

Structure (SMILES): Oc1c(CN2CCCC2)cc(Nc2nnc(Cl)c3ccccc23)cc1CN1CCCC1 [Example V, 1-N-[3',5'-bis(N-pyrrolidinylmethyl)-4'-hydroxyanilino]-4-chlorophthalazine]
- inhibition at 4 µg/mL (guinea pig ileum; [3]): 76%
- minimal effective dose [1, 4]: 2.5 mg/kg

Source: patent US4666924A, “Certain pyridyl substituted aminomethyl benzene derivatives having anti-arrhythmic activity” (priority 1984, dated 1987)
